Numbers after ± are expanded uncertainties. Values belong to the molecule of their own block, whether it stands above or below them.
Settings: Liquid, Ebulliometric method (Recirculating still)

vapor or sublimation pressure (406.13 K): 60 ± 1.4 kPa | vapor or sublimation pressure (406.15 K): 60 ± 1.4 kPa | vapor or sublimation pressure (415.28 K): 80 ± 2 kPa | vapor or sublimation pressure (415.3 K): 80 ± 2 kPa | vapor or sublimation pressure (422.73 K): 100 ± 2.5 kPa | vapor or sublimation pressure (422.75 K): 100 ± 2.5 kPa
SMILES: CCCOCCO [2-propoxyethanol]

vapor or sublimation pressure (359.26 K): 60 ± 1.4 kPa | vapor or sublimation pressure (366.45 K): 80 ± 1.8 kPa | vapor or sublimation pressure (372.21 K): 100 ± 2.4 kPa
SMILES: CCC(C)O (configuration not stated) [butan-2-ol]

vapor or sublimation pressure (342.87 K): 60 ± 1.4 kPa | vapor or sublimation pressure (349.6 K): 80 ± 1.8 kPa | vapor or sublimation pressure (355.06 K): 100 ± 2.4 kPa
SMILES: CC(C)O [propan-2-ol]

Source: the NIST ThermoML archive (doi:10.1021/je3002255)
